Tested on: 186277-243-T-J2-PDC spheroids with HUVEC/MSC, viability
Assay: Anticancer human tumor 186277-243-T-J2-PDC patient-derived colon adenocarcinoma cell line growth inhibition [CLK]
Conditions: second compound 10 µM; first compound 0.0316 µM; active compounds read low
In short: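 Multi-cell-type spheroids combined patient-derived tumor cells with HUVEC endothelial cells and human mesenchymal stem cells. Paired agents were dosed in half-log steps down from about clinical Cmax, or from 10 microM where Cmax was unknown.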
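Further: compound exposure lasted seven days before readout; 100% = DMSO vehicle control wells.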

First: O=C(c1cc(Cc2n[nH]c(=O)c3ccccc23)ccc1F)N1CCN(C(=O)C2CC2)CC1 + CNC(=O)c1ccc(Nc2nc(OC3CCCC3)c3c(-c4ccc5nc(C)oc5c4)c[nH]c3n2)c(OC)c1
Second: C=C(F)C(=O)N1CCN(c2nc(OCC3CCCN3C)nc3c2CCN(c2cccc4cccc(Cl)c24)C3)CC1CC#N (configuration not stated) + CN1CCN(c2cc(C(=O)Nc3cc4cc(-c5cnn(C)c5)ccc4cn3)ccn2)CC1
The viability, T/C of the first is higher: 37.7% for the first, 0.68% for the second.

Going from `COC1C=CCC(C)C(C)S(=O)(=O)NC(=O)c2ccc3c(c2)N(CC2CCC21)CC1(CCCc2cc(Cl)ccc21)CO3` (configuration not stated) + CN1CCN(c2cc(C(=O)Nc3cc4cc(-c5cnn(C)c5)ccc4cn3)ccn2)CC1 to `C#Cc1c(F)ccc2cc(O)cc(-c3ncc4c(N5CC6CCC(C5)N6)nc(OCC56CCCN5CC(F)C6)nc4c3F)c12` (configuration not stated) + CNC(=O)c1ccc(Nc2nc(OC3CCCC3)c3c(-c4ccc5nc(C)oc5c4)c[nH]c3n2)c(OC)c1, the viability, T/C rises from 0.93% to 15.6%.

Same assay, conditions: second compound 10 µM; first compound 0.1 µM; active compounds read low

Going from `COc1c(OCCCN2CCOCC2)ccc2c3n(c(=NC(=O)c4cnc(N)nc4)nc12)CCN3` + CNC(=O)c1ccc(Nc2nc(OC3CCCC3)c3c(-c4ccc5nc(C)oc5c4)c[nH]c3n2)c(OC)c1 to `C=C(F)C(=O)N1CCN(c2nc(OCC3CCCN3C)nc3c2CCN(c2cccc4cccc(Cl)c24)C3)CC1CC#N` (configuration not stated) + CN1CCN(c2cc(C(=O)Nc3cc4cc(-c5cnn(C)c5)ccc4cn3)ccn2)CC1, the viability, T/C falls from 6.2% to 1%.

Going from `O=C(c1cc(Cc2n[nH]c(=O)c3ccccc23)ccc1F)N1CCN(C(=O)C2CC2)CC1` + CNC(=O)c1ccc(Nc2nc(OC3CCCC3)c3c(-c4ccc5nc(C)oc5c4)c[nH]c3n2)c(OC)c1 to `C#Cc1c(F)ccc2cc(O)cc(-c3ncc4c(N5CC6CCC(C5)N6)nc(OCC56CCCN5CC(F)C6)nc4c3F)c12` (configuration not stated) + CNC(=O)c1ccc(Nc2nc(OC3CCCC3)c3c(-c4ccc5nc(C)oc5c4)c[nH]c3n2)c(OC)c1, the viability, T/C falls from 37.5% to 9.24%.

`COC1C=CCC(C)C(C)S(=O)(=O)NC(=O)c2ccc3c(c2)N(CC2CCC21)CC1(CCCc2cc(Cl)ccc21)CO3` (configuration not stated) + CN1CCN(c2cc(C(=O)Nc3cc4cc(-c5cnn(C)c5)ccc4cn3)ccn2)CC1 showed a viability, T/C of 1.11%.

Same assay, conditions: second compound 10 µM; first compound 0.316 µM; active compounds read low

First: COc1c(OCCCN2CCOCC2)ccc2c3n(c(=NC(=O)c4cnc(N)nc4)nc12)CCN3 + CNC(=O)c1ccc(Nc2nc(OC3CCCC3)c3c(-c4ccc5nc(C)oc5c4)c[nH]c3n2)c(OC)c1
Second: C=C(F)C(=O)N1CCN(c2nc(OCC3CCCN3C)nc3c2CCN(c2cccc4cccc(Cl)c24)C3)CC1CC#N (configuration not stated) + CN1CCN(c2cc(C(=O)Nc3cc4cc(-c5cnn(C)c5)ccc4cn3)ccn2)CC1
The viability, T/C of the first is higher: 3.21% for the first, 1.19% for the second.

First: O=C(c1cc(Cc2n[nH]c(=O)c3ccccc23)ccc1F)N1CCN(C(=O)C2CC2)CC1 + CNC(=O)c1ccc(Nc2nc(OC3CCCC3)c3c(-c4ccc5nc(C)oc5c4)c[nH]c3n2)c(OC)c1
Second: C#Cc1c(F)ccc2cc(O)cc(-c3ncc4c(N5CC6CCC(C5)N6)nc(OCC56CCCN5CC(F)C6)nc4c3F)c12 (configuration not stated) + CNC(=O)c1ccc(Nc2nc(OC3CCCC3)c3c(-c4ccc5nc(C)oc5c4)c[nH]c3n2)c(OC)c1
The viability, T/C of the first is higher: 37.9% for the first, 6.48% for the second.

For `COC1C=CCC(C)C(C)S(=O)(=O)NC(=O)c2ccc3c(c2)N(CC2CCC21)CC1(CCCc2cc(Cl)ccc21)CO3` (configuration not stated) + CN1CCN(c2cc(C(=O)Nc3cc4cc(-c5cnn(C)c5)ccc4cn3)ccn2)CC1, the viability, T/C was 1.01%.

Same assay, conditions: second compound 10 µM; first compound 1 µM; active compounds read low

First: COc1c(OCCCN2CCOCC2)ccc2c3n(c(=NC(=O)c4cnc(N)nc4)nc12)CCN3 + CNC(=O)c1ccc(Nc2nc(OC3CCCC3)c3c(-c4ccc5nc(C)oc5c4)c[nH]c3n2)c(OC)c1
Second: C=C(F)C(=O)N1CCN(c2nc(OCC3CCCN3C)nc3c2CCN(c2cccc4cccc(Cl)c24)C3)CC1CC#N (configuration not stated) + CN1CCN(c2cc(C(=O)Nc3cc4cc(-c5cnn(C)c5)ccc4cn3)ccn2)CC1
The viability, T/C of the first is higher: 2.06% for the first, 0.79% for the second.

First: O=C(c1cc(Cc2n[nH]c(=O)c3ccccc23)ccc1F)N1CCN(C(=O)C2CC2)CC1 + CNC(=O)c1ccc(Nc2nc(OC3CCCC3)c3c(-c4ccc5nc(C)oc5c4)c[nH]c3n2)c(OC)c1
Second: C#Cc1c(F)ccc2cc(O)cc(-c3ncc4c(N5CC6CCC(C5)N6)nc(OCC56CCCN5CC(F)C6)nc4c3F)c12 (configuration not stated) + CNC(=O)c1ccc(Nc2nc(OC3CCCC3)c3c(-c4ccc5nc(C)oc5c4)c[nH]c3n2)c(OC)c1
The viability, T/C of the first is higher: 36.5% for the first, 5.74% for the second.

`COC1C=CCC(C)C(C)S(=O)(=O)NC(=O)c2ccc3c(c2)N(CC2CCC21)CC1(CCCc2cc(Cl)ccc21)CO3` (configuration not stated) + CN1CCN(c2cc(C(=O)Nc3cc4cc(-c5cnn(C)c5)ccc4cn3)ccn2)CC1 gave a viability, T/C of 0.62%.

Same assay, conditions: second compound 10 µM; first compound 3.16 µM; active compounds read low

Going from `O=C(c1cc(Cc2n[nH]c(=O)c3ccccc23)ccc1F)N1CCN(C(=O)C2CC2)CC1` + CNC(=O)c1ccc(Nc2nc(OC3CCCC3)c3c(-c4ccc5nc(C)oc5c4)c[nH]c3n2)c(OC)c1 to `C=C(F)C(=O)N1CCN(c2nc(OCC3CCCN3C)nc3c2CCN(c2cccc4cccc(Cl)c24)C3)CC1CC#N` (configuration not stated) + CN1CCN(c2cc(C(=O)Nc3cc4cc(-c5cnn(C)c5)ccc4cn3)ccn2)CC1, the viability, T/C falls from 39.9% to 1.52%.

Compared with `COC1C=CCC(C)C(C)S(=O)(=O)NC(=O)c2ccc3c(c2)N(CC2CCC21)CC1(CCCc2cc(Cl)ccc21)CO3` (configuration not stated) + CN1CCN(c2cc(C(=O)Nc3cc4cc(-c5cnn(C)c5)ccc4cn3)ccn2)CC1, `C#Cc1c(F)ccc2cc(O)cc(-c3ncc4c(N5CC6CCC(C5)N6)nc(OCC56CCCN5CC(F)C6)nc4c3F)c12` (configuration not stated) + CNC(=O)c1ccc(Nc2nc(OC3CCCC3)c3c(-c4ccc5nc(C)oc5c4)c[nH]c3n2)c(OC)c1 is higher in viability, T/C: 1.39% for the first, 6.36% for the second.

Same assay, conditions: second compound 10 µM; first compound 10 µM; active compounds read low

First: O=C(c1cc(Cc2n[nH]c(=O)c3ccccc23)ccc1F)N1CCN(C(=O)C2CC2)CC1 + CNC(=O)c1ccc(Nc2nc(OC3CCCC3)c3c(-c4ccc5nc(C)oc5c4)c[nH]c3n2)c(OC)c1
Second: C=C(F)C(=O)N1CCN(c2nc(OCC3CCCN3C)nc3c2CCN(c2cccc4cccc(Cl)c24)C3)CC1CC#N (configuration not stated) + CN1CCN(c2cc(C(=O)Nc3cc4cc(-c5cnn(C)c5)ccc4cn3)ccn2)CC1
The viability, T/C of the first is higher: 35.5% for the first, 0.2% for the second.

Compared with `COC1C=CCC(C)C(C)S(=O)(=O)NC(=O)c2ccc3c(c2)N(CC2CCC21)CC1(CCCc2cc(Cl)ccc21)CO3` (configuration not stated) + CN1CCN(c2cc(C(=O)Nc3cc4cc(-c5cnn(C)c5)ccc4cn3)ccn2)CC1, `C#Cc1c(F)ccc2cc(O)cc(-c3ncc4c(N5CC6CCC(C5)N6)nc(OCC56CCCN5CC(F)C6)nc4c3F)c12` (configuration not stated) + CNC(=O)c1ccc(Nc2nc(OC3CCCC3)c3c(-c4ccc5nc(C)oc5c4)c[nH]c3n2)c(OC)c1 is higher in viability, T/C: 0.26% for the first, 3.45% for the second.

— PubChem BioAssay AID2060625 (Molecular Pharmacology Branch, DTP, NCI, 2025)
